Laboratory results published in patent US20140066394A1, “Substituted 6-(Benzylamino) Purine Riboside Derivatives, Use Thereof and Compositions Containing These Derivatives” (Biopatterns, S.R.O, priority 2009, published 2014).

Experiments:
[1] = tested on: promyelocytic HL-60 leukemia; assay: In vitro cytotoxicity, Calcein AM assay, HL60; format: cell-based, human
Description: (§1) Low cytotoxicity of the compounds is the major property determining the cosmetic use. One of the parameters used, as the basis for cytotoxicity assays, is the metabolic activity of viable cells. For example, a microtiter assay, which uses the Calcein AM, is now widely used to quantitate cell proliferation and cytotoxicity. For instance, this assay is used in drug screening programs and in chemosensitivity testing. Because only metabolically active cells cleave Calcein AM, these assays detect viable cells exclusively. The quantity of […] Calcein AM corresponds to the number of vital cells in the culture.
(§2) Human T-lymphoblastic leukemia cell line CEM; promyelocytic HL-60 and monocytic U937 leukemias; breast carcinoma cell lines MCF-7, BT549, MDA-MB-231; glioblastoma U87MG cells; cervical carcinoma cells HELA; sarcoma cells U2OS and Saos2; hepatocellular carcinoma HepG2; mouse fibroblasts NIH3T3; mouse immortalized bone marrow macrophages B2.4 and B10A.4; P388D1 and L1210 leukemia; B16 and B16F10 melanomas; human osteosarcoma HOS; human myeloid leukemia K-562; human skin melanoma G-361 were used for routine screening of compounds. The cells were maintained in Nunc/Corning 80 cm^2 plastic tissue culture flasks and cultured in cell culture medium (DMEM with 5 g/l glucose, 2 mM glutamine, 100 U/mL penicillin, 100 μg/mL streptomycin, 10% fetal calf serum and sodium bicarbonate).
(§3) The cell suspensions that were prepared and diluted according to the particular cell type and the expected target cell density (2.500-30.000 cells per well based on cell growth characteristics) were added by pipette ([…]) into 96/well microtiter plates. Inoculates were allowed a pre-incubation period of 24 hours at 37° C. and 5% CO2 for stabilisation. Four-fold dilutions of the intended test concentration were added at time zero in 20 μl aliquots to the microtiter plate wells. Usually, the compound tested was evaluated at six 4-fold dilutions. In routine testing, the highest well concentration was 100 μM, but it can be the matter of change dependent on the agent. All drug concentrations were examined in duplicates. Incubations of cells with the tested compounds lasted for 72 hours at 37° C., in 5% CO2 atmosphere and 100% humidity. At the end of the incubation period, the cells were assayed by using Calcein AM. Ten microliters of the stock solution were pipetted into each well and incubated for 1 hour. Fluorescence (FD) was measured with the Labsystem FIA Reader Fluoroscan Ascent (UK). The tumour cell survival (GI50) was calculated using the following equitation: TCS=(FDdrug exposed well/mean FDeontrol wells)×100%. The GI50 value, the drug concentration lethal to 50% of the tumour cells, was calculated from the obtained dose response curves.
(§4) Zero cytotoxicity of the novel compounds is the basic prerequisite for agricultural and tumor-unrelated applications. The cytoxicity of the novel compounds was tested on a panel of cell lines of different histogenetic and species origin (Table 9). We show herein that equal activities were found in all tumour cell lines tested, however, the non-malignant cells, e.g. NIH3T3 fibroblasts and normal human lymphocytes, were resistant to 2,6-disubstituted purine ribosides induced cytotoxicity. The compounds listed in Tab. 9 can be divided into 2 groups. The first group contains “classical cytokinins” represented by 6-substituted purine ribosides (which are known in the prior art). The second group contains the novel 2,6-disubstituted derivatives of these compounds. […] GI50 for NIH3T3 fibroblasts and normal human lymphocytes was always higher than 100 μM. The novel derivatives show no toxicity to normal and tumour cells in concentrations about 100 μM and thus are more suitable for agricultural applications than “classical cytokinins” (6-substituted purine riboside derivatives).

[2] = tested on: breast carcinoma cell line MCF-7; assay: In vitro cytotoxicity, Calcein AM assay, MCF7; format: cell-based, human
Description: as §1, §2, §3, §4

[3] = tested on: Human T-lymphoblastic leukemia cell line CEM; assay: In vitro cytotoxicity, Calcein AM assay, CEM; format: cell-based; details: 72 hours
Description: as §1, §2, §3, §4

[4] = tested on: human skin melanoma G-361; assay: In vitro cytotoxicity, Calcein AM assay, G-361; format: cell-based
Description: as §1, §2, §3, §4

[5] = tested on: human osteosarcoma HOS; assay: In vitro cytotoxicity, Calcein AM assay, HOS; format: cell-based; details: 72 hours
Description: as §1, §2, §3, §4

[6] = tested on: human myeloid leukemia K-562; assay: In vitro cytotoxicity, Calcein AM assay, K-562; format: cell-based
Description: as §1, §2, §3, §4

[7] = tested on: β-adrenergic receptors; assay: Isoproterenol-induced cAMP synthesis in rat C6 glioma (anti-inflammatory activity); format: cell-based; details: for Effect (modulation of isoproterenol-induced cAMP synthesis): added simultaneously with (−)-isoproterenol; for IC50: cellular cAMP by enzyme immunoassay, dose-response curve in duplicate, read-out: I50
Experimental: Anti-inflammatory activity of several of the 2-substituted 6-benzylaminopurine riboside derivatives of this invention was determined; kinetin riboside was also evaluated as a control. Rat C6 glioma (ATCC No. CCL107) was cultivated in monolayer in serum-free chemically defined medium containing Ham's F10/minimal essential medium (1:1 v/v), 2 mM L-glutamine, 1% (v/v) minimal essential medium vitamins (100×), 1% (v/v) minimal essential medium nonessential amino acids (100×), 100 U/mL penicillin, […], and 30 nM sodium selenite. Incubation was performed at 37° C. in a humidified atmosphere. The assays were performed in the logaritmic growth phase at a density of 2.5×10^5 cells/cm^2.
Intracellular cAMP synthesis was induced by addition of 5 mM (−)-isoproterenol; various amounts of test compounds were added at the same time as the (−)-isoproterenol. After […] incubation at 37° C., the medium was removed and the cellular amount of cAMP was determined using the cAMP-enzyme immunoassay kit from Amersham. The I50 value was determined from a dose-response curve in duplicate. The effect of nine purine analogues was measured after simultaneous addition with isoproterenol.
As P2Y1-like and A2 purinergic receptors, negatively and positively coupled to adenylate cyclase respectively, are present on rat C6 glioma as to be determined if the modulation of the synthesis of cAMP is due to inhibition of the activation of β-adrenergic receptors by isoproterenol are due to activation of purinergic receptors.

[8] = tested on: cytokinin-dependent tobacco callus Nicotiana tabacum L. cv. Wisconsin 38; assay: Tobacco callus bioassay (stimulation of plant cell division); format: cell-based; details: for concentration with highest activity: increase of fresh callus weight after four weeks, tested 10^−8 M to 10^−4 M; for activity (%) [10^−5 mol · l^−1 C = 100%]: relative activity at the concentration with highest activity, kinetin riboside at 10^−5 mol/l = 100%
Experimental: Cytokinin-dependent tobacco callus Nicotiana tabacum L. cv. Wisconsin 38 was maintained at 25° C. in darkness on modified MS medium, containing per 1 liter: 4 μmol of nicotinic acid, 2.4 μmol of pyridoxine hydrochloride, 1.2 μmol of thiamine, 26.6 μmol of glycine, 1.37 μmol of glutamine, 1.8 μmol of myo-inositol, 30 g of sucrose, 8 g of agar, 5.37 μmol of NAA and 0.5 μmol of the compound tested. Subcultivation was carried out every three weeks. Fourteen days before the bioassay, the callus tissue was transferred to the media without the compound tested. The biological activity was determined from the increase of the fresh callus weight after four weeks of cultivation. Five replicates were prepared for each concentration of the compound tested and the entire test was repeated twice. From the obtained data, the concentration with the highest activity was selected for each compound tested. Relative activity of the compound at this concentration was calculated (Table 8). The compounds to be tested were dissolved in dimethylsulfoxide (DMSO) and the solution brought up to 10^−3M with distilled water. […] The compounds listed in Table 8 are compared to a “classical cytokinin” kinetin riboside (compound known in the prior art—C=control).

COc1c(O)cccc1CNc1nc(Cl)nc2c1ncn2C1OC(CO)C(O)C1O (centres unmarked) [Compound 21]
GI50 ([1]; 72 hours): > 100 µM | GI50 ([2]; 72 hours): > 100 µM | GI50 [3]: > 100 µM | GI50 ([4]; 72 hours): > 100 µM | GI50 [5]: > 100 µM | GI50 ([6]; 72 hours): > 100 µM

OC[C@H]1O[C@@H](n2cnc3c(NCc4cc(Cl)ccc4O)nc(Cl)nc32)[C@H](O)[C@@H]1O [Compound 29, 2-Chloro-6-(2-hydroxy-5-chlorobenzylamino)purine riboside]
GI50 ([1]; 72 hours): > 100 µM | GI50 ([2]; 72 hours): > 100 µM | GI50 [3]: > 100 µM | GI50 ([4]; 72 hours): > 100 µM | Effect (modulation of isoproterenol-induced cAMP synthesis) [7]: inhibition | IC50 [7]: 12.4 ± 2 µM | GI50 [5]: > 100 µM | GI50 ([6]; 72 hours): > 100 µM

OCC1OC(n2cnc3c(NCc4cc(F)ccc4O)nc(Cl)nc32)C(O)C1O (centres unmarked) [Compound 30]
GI50 ([1]; Homo sapiens, HL-60, 72 hours): > 100 µM | GI50 ([2]; Homo sapiens, MCF7, 72 hours): > 100 µM | GI50 ([3]; Homo sapiens): > 100 µM | GI50 ([4]; Homo sapiens, G-361, 72 hours): > 100 µM | concentration with highest activity [8]: 10^−6 mol · l^−1 | activity (%) [10^−5 mol · l^−1 C = 100%] [8]: 108.6 (±3) % | Effect (modulation of isoproterenol-induced cAMP synthesis) [7]: inhibition | IC50 [7]: 15.7 ± 4 µM | GI50 ([5]; Homo sapiens): > 100 µM | GI50 ([6]; Homo sapiens, K562, 72 hours): > 100 µM

OCC1OC(n2cnc3c(NCc4ccc(F)cc4F)nc(Cl)nc32)C(O)C1O (centres unmarked) [Compound 32]
concentration with highest activity [8]: 10^−6 mol · l^−1 | activity (%) [10^−5 mol · l^−1 C = 100%] [8]: 109.7 (±12) %

OCC1OC(n2cnc3c(NCc4c(F)ccc(F)c4F)nc(Cl)nc32)C(O)C1O (centres unmarked) [Compound 33]
concentration with highest activity [8]: 10^−6 mol · l^−1 | activity (%) [10^−5 mol · l^−1 C = 100%] [8]: 105.1 (±2) %

COc1cccc(CNc2nc(F)nc3c2ncn3C2OC(CO)C(O)C2O)c1O (centres unmarked) [Compound 40]
Effect (modulation of isoproterenol-induced cAMP synthesis) [7]: inhibition | IC50 [7]: 4.2 ± 2 µM

OCC1OC(n2cnc3c(NCc4cc(Cl)ccc4O)nc(F)nc32)C(O)C1O (centres unmarked) [Compound 49]
concentration with highest activity [8]: 10^−6 mol · l^−1 | activity (%) [10^−5 mol · l^−1 C = 100%] [8]: 112 (±8) % | Effect (modulation of isoproterenol-induced cAMP synthesis) [7]: inhibition | IC50 [7]: 10.8 ± 3 µM

OCC1OC(n2cnc3c(NCc4cc(F)ccc4O)nc(F)nc32)C(O)C1O (centres unmarked) [Compound 50]
Effect (modulation of isoproterenol-induced cAMP synthesis) [7]: inhibition | IC50 [7]: 13.6 ± 3 µM

CSc1nc(NCc2ccc(F)cc2F)c2ncn(C3OC(CO)C(O)C3O)c2n1 (centres unmarked) [Compound 97]
concentration with highest activity [8]: 10^−6 mol · l^−1 | activity (%) [10^−5 mol · l^−1 C = 100%] [8]: 107 (±8) %
